Among the data in PubChem BioAssay AID720602 (Broad Institute, 2013) are AC50 values, retold here.

By AC50 is commonly meant the midpoint of the concentration-response curve, whichever way the signal moves. A higher AC50 goes with activity only at high concentration.

This test has as its system LOX IMVI viability, ATP luminescence, 8/24/48 h. The test can be described thus: cytotoxicity in LOX IMVI melanoma cells – cell-based, CellTiter-Glo ATP luminescence, 8/24/48 h, dry powder, HRAS target identification, dose response (AID 720602).

Consider `COc1ccc(N(C(=O)CCl)C(C(=O)NCCc2ccccc2)c2cccs2)cc1Cl` (stereo not given), for which the AC50 (measured here: AC50 at 8 h) worked out at 21 nM, the AC50 (measured here: AC50 at 24 h) turned out to be 25.9 nM and the AC50 (measured here: AC50 at 48 h) came to 122 nM.

Regarding `CC(C)(C)OC(=O)NCCOCCOCCOc1ccc(N(C(=O)CCl)C(C(=O)NCCc2ccccc2)c2cccs2)cc1Cl` (stereo not given), the AC50 reads like this: (measured here: AC50 at 8 h) 43.5 nM; (measured here: AC50 at 24 h) 34.2 nM; (measured here: AC50 at 48 h) 390 nM.

With `Cc1onc(C(=O)N2CCN(C(c3ccc(Cl)cc3)c3ccc(Cl)cc3)CC2)c1[N+](=O)[O-]`, the AC50 by setting is: (measured here: AC50 at 8 h) 60 nM; (measured here: AC50 at 24 h) 36.6 nM; (measured here: AC50 at 48 h) 499 nM.

`C#CCCCC(=O)NCCOCCOCCOc1ccc(N(C(=O)CCl)C(C(=O)NCCc2ccccc2)c2cccs2)cc1Cl` (stereo not given) showed an AC50 (measured here: AC50 at 8 h) of 193 nM, an AC50 (measured here: AC50 at 24 h) of 146 nM and an AC50 (measured here: AC50 at 48 h) of 2640 nM.

Turning to `COC(=O)c1ccc([C@@H]2c3[nH]c4ccccc4c3C[C@@H](C(=O)OC)N2C(=O)CCl)cc1`, the AC50 was 15.7 nM (measured here: AC50 at 8 h), 10.1 nM (measured here: AC50 at 24 h) and 187 nM (measured here: AC50 at 48 h).
